Where two headings read alike, the source gives them in different places.
Experiments:
[1] = tested on: tumorigenic alveolar epithelial cells (A549); assay: Cell proliferation assay (CellTiter-Glo), A549; assay type: cell-based, human; settings: read-out: Half maximal inhibitory concentration (IC50), A549 Cell Line
Protocol: (§1) An Nrf2 antioxidant response element (ARE) reporter HepG2 cell line, a stably transfected liver cell line expressing a firefly luciferase gene under the control of the ARE, was purchased from BPS Bioscience (San Diego, CA, USA). The human alveolar epithelial cell line A549 and the human lung fibroblast cell line MRC-5 were obtained from American Type Culture Collection (ATCC) (CCL-185 and CCL-171, ATCC, Manassas, VA, USA). The HepG2-ARE cells were grown in modified Eagle’s medium (MEM) supplemented with GlutaMAX, 10% fetal calf serum (FBS) and 600ug/mL Geneticin (Thermo Fisher Scientific, Waltham, MA, USA). […] All cells were grown and maintained at 37 °C in a humidified incubator with 5% CO2. Influence of the phenolic compounds on cell growth in the tumorigenic alveolar epithelial cells (A549) and non-tumorigenic lung fibroblast cell (MRC-5) cell lines was investigated using the CellTiter-Glo® cell viability assay kit (G7571, BioVision, CA, USA), according to the manufacturer’s instructions. […] The cultures were treated with the phenolic compounds and DL-Sulphorane (a known antiproliferative agent as a positive control) at 7 final concentrations (as mentioned above) and a vehicle (0.35% DMSO). After 72h of incubation, CellTiter-Glo Luminescent assay reagent (Promega) was dispensed at a volume of 10 µL per well into the 384-well plates for 10 min using the Matrix Wellmate dispenser (Thermo Fisher Scientific). The plates were allowed to incubate at room temperature for 20 min and then the luminescence was read using an Enspire microplate reader (Perkin Elmer Inc.) The relative cytotoxicity (%) of the phenolic compounds was calculated by dividing the specific luminescence absorbance of the treated sampled by the specific luminescence absorbance of the control sample and multiplying by 100. The control sample (in the presence of DMSO vehicle and without the compounds) was set at 100%. Non-linear regression analysis of data was performed to identify the dose-response curve for each compound. The IC50 values (half maximal inhibitory concentration) of each compound were determined from the dose-response curve for the A549 and MRC-5 cell lines using GraphPad Prism 8.

[2] = tested on: non-tumorigenic lung fibroblast cells (MRC-5); assay: Cell proliferation assay (CellTiter-Glo), MRC-5; assay type: cell-based, human; settings: read-out: Half maximal inhibitory concentration (IC50), MRC-5 Cell Line
Protocol: as §1

[3] = Total antioxidant capacity (TAC) colorimetric assay; settings: for Fold-Increase Over Trolox: coefficient of compound model divided by coefficient of Trolox control; for total antioxidant capacity compared with the control (Trolox): in words; for Slope (in Trolox Equivalents): linear regression of dose-response, 7 concentrations, Cu2+ reagent, 1.5 h, absorbance 570 nm
Protocol: The antioxidant capacity of the phenolic compounds was evaluated using a total antioxidant capacity (TAC) colorimetric assay kit (K274-100, BioVision, CA, USA), according to the manufacturer’s instructions. Briefly, the phenolic compounds tested at 7 concentrations (as described above) were added to 384-well plates. Subsequently, Cu^2+ working solution (12.5 µL/ well) was added into the sample wells. The 384-well plates were incubated for 1.5 h at room temperature and the absorbance of the samples was then read at 570 nm using a microplate reader (Enspire, Perkin Elmer Inc., Waltham, MA, USA). Trolox was used to standardize the antioxidant capacity, as recommended by the manufacturer. A Trolox standard curve was included, and the total antioxidant capacity of the phenolic compounds was interpolated and expressed as Trolox equivalent (mM) from a seven-parameter logistic curve of the Trolox control using curve-fitting software.
For total antioxidant capacity analysis, linear regression analysis was performed to identify the linear regression equation for each compound using GraphPad Prism 8 (San Diego, CA, USA). The coefficient of the compound equation was compared with the coefficient of the Trolox control to determine the relative total antioxidant capacity of each compound. Fold-increase over Trolox was calculated by dividing the coefficient of the compound models by the coefficient of the Trolox control.

[4] = tested on: antioxidant response element (ARE) in HepG2-ARE cells; assay: Antioxidant response element (ARE) activation, Steady-Glo luciferase reporter assay; assay type: cell-based, human; settings: at high concentrations; did not induce ARE activation
Protocol: An Nrf2 antioxidant response element (ARE) reporter HepG2 cell line, a stably transfected liver cell line expressing a firefly luciferase gene under the control of the ARE, was purchased from BPS Bioscience (San Diego, CA, USA). The human alveolar epithelial cell line A549 and the human lung fibroblast cell line MRC-5 were obtained from American Type Culture Collection (ATCC) (CCL-185 and CCL-171, ATCC, Manassas, VA, USA). The HepG2-ARE cells were grown in modified Eagle’s medium (MEM) supplemented with GlutaMAX, 10% fetal calf serum (FBS) and 600ug/mL Geneticin (Thermo Fisher Scientific, Waltham, MA, USA). The tumorigenic alveolar epithelial cells (A549) and non-tumorigenic lung fibroblast cells (MRC-5) were grown in RPMI medium supplemented with 10% FBS. All cells were grown and maintained at 37 °C in a humidified incubator with 5% CO2.
The impact of the phenolic compounds on ARE activation in the HepG2-ARE cell line was evaluated using Steady-Glo® Luciferase assay system (E2510, Promega, Madison, WI, USA), following the manufacturer’s instructions. In brief, the HepG2 -ARE cells were seeded at a density of 10,000 cells/well in 384-well plates containing 50 µL of the complete media per well using a Multidrop Combi dispenser (Thermo Fisher Scientific, Waltham, MA, USA) and then the plate cultures were incubated at 37 °C in a 5% CO2 humidified incubator for 20 h. The HepG2-ARE cells were incubated with compounds for 18 h. The known ARE activator TBHQ was used as a positive control and the cells treated with 0.35% DMSO and without compounds tested served as a vehicle control. The cells in the absence of DMSO and the compounds were utilized for measuring the background luminescence. The reporter activity was measured by the addition of 25 µL Steady-Glo® luciferase assay reagent (Promega) for 30 min using the Multidrop Combi dispenser (Thermo Fisher Scientific). The luminescence intensities of the 384-well plates were read on Enspire microplate reader (Perkin Elmer Inc.). Percent cytotoxicity of compounds was normalized to the positive and negative controls on each assay plate.
The ARE fold induction of the compounds was measured by dividing the luminescence absorbance of the treatment by the specific luminescence absorbance of the control sample and multiplying by 100. The control sample (in the presence of DMSO vehicle and without the compounds) was set at 100%.

[5] = Homo sapiens, A549, 72 h incubation
[6] = Homo sapiens, MRC5, 72 h incubation

Row | Structure (SMILES) | IC50 ([1]; 72 h incubation) | IC50 ([2]; 72 h incubation) | Fold-Increase Over Trolox [3] | total antioxidant capacity compared with the control (Trolox) [3] | Slope (in Trolox Equivalents) [3] | IC50 [1, 5] | IC50 [2, 6] | toxicity to HepG2-ARE cells [4]
1 | Oc1cc(O)c2c(c1)O[C@H](c1ccc(O)c(O)c1)[C@@H](O)C2 [(+)-Catechin] | > 250 µM | > 250 µM | 2.0 | higher | 0.002029 ± 3.184 × 10^−5 | – | – | –
2 | COc1cc(C(=O)O)cc(OC)c1O [Syringic acid] | – | – | 1.1 | higher | 0.001088 ± 1.057 × 10^−5 | > 250 µM | > 250 µM | –
3 | COc1cc(/C=C/C(=O)O)ccc1O [Ferulic acid] | > 250 µM | > 250 µM | 1.8 | higher | 0.001775 ± 5.026 × 10^−5 | – | – | –
4 | C[C@@H]1O[C@@H](O[C@H]2[C@H](Oc3cc(O)c4c(c3)O[C@H](c3ccc(O)cc3)CC4=O)O[C@H](CO)[C@@H](O)[C@@H]2O)[C@H](O)[C@H](O)[C@H]1O [Naringin] | – | – | 0.5 | lower | 0.0005177 ± 9.755 × 10^−6 | > 250 µM | > 250 µM | –
5 | O=c1oc2c(O)c(O)cc3c(=O)oc4c(O)c(O)cc1c4c23 [Ellagic acid] | – | – | 0.5 | lower | 0.0005183 ± 2.860 × 10^−5 | > 250 µM | > 250 µM | –
6 | O=C(O)c1cc(O)c(O)c(O)c1 [Gallic acid] | – | – | – | higher | 0.002541 ± 1.392 × 10^−5 | > 250 µM | 48.2 µM | –
7 | O=c1c(O[C@@H]2O[C@H](CO)[C@@H](O)[C@H](O)[C@H]2O)c(-c2ccc(O)c(O)c2)oc2cc(O)cc(O)c12 [Quercetin 3-β-D-glucoside] | 6.89 µM | 12.2 µM | 2.9 | higher | 0.002908 ± 1.522 × 10^−4 | – | – | toxic to cells
8 | O=C(O)c1ccc(O)cc1 [p-Hydroxybenzoic acid] | – | – | – | lower | −0.000008 ± 1.260 × 10^−5 | > 250 µM | > 250 µM | –
9 | COc1cc(C(=O)O)ccc1O [Vanillic acid] | – | – | 0.7 | lower | 0.0007396 ± 4.245 × 10^−5 | > 250 µM | > 250 µM | –
10 | O=c1c(O)c(-c2ccc(O)c(O)c2)oc2cc(O)cc(O)c12 [Quercetin] | – | – | 4.0 | higher | 0.004045 ± 1.392 × 10^−4 | 87.7 µM | 99.5 µM | –
11 | C[S+]([O-])CCCCN=C=S (racemic) [DL-Sulforaphane, reference compound] | 17 µM | 9.95 µM | – | – | – | – | – | –
12 | O=C(OC[C@H]1O[C@@H](OC(=O)c2cc(O)c(O)c(O)c2)[C@H](OC(=O)c2cc(O)c(O)c(O)c2)[C@@H](OC(=O)c2cc(O)c(O)c(O)c2)[C@@H]1OC(=O)c1cc(O)c(O)c(O)c1)c1cc(O)c(O)c(O)c1 [Penta-O-galloyl-β-D-glucose] | 6.11 µM | 10.4 µM | 11.5 | higher | 0.01167 ± 5.756 × 10^−4 | – | – | toxic to cells
13 | Cc1c(C)c2c(c(C)c1O)CCC(C)(C(=O)O)O2 (centres unmarked) [Trolox, reference compound] | – | – | 1.0 | – | 0.001014 ± 1.125 × 10^−5 | – | – | –
14 | O=C(O)C=Cc1ccc(O)cc1 [p-Coumaric acid] | – | – | 0.3 | lower | 0.0003139 ± 1.434 × 10^−5 | > 250 µM | > 250 µM | –
15 | C[C@@H]1O[C@@H](OC[C@H]2O[C@@H](Oc3c(-c4ccc(O)c(O)c4)oc4cc(O)cc(O)c4c3=O)[C@H](O)[C@@H](O)[C@@H]2O)[C@H](O)[C@H](O)[C@H]1O [Rutin] | – | – | 2.9 | higher | 0.002962 ± 1.551 × 10^−4 | > 250 µM | > 250 µM | –
16 | O=C(O)[C@]1(O)C[C@@H](O)[C@@H](O)[C@H](O)C1 [Quinic acid] | – | – | <0.1 | lower | −0.0000004 ± 1.034 × 10^−6 | > 250 µM | > 250 µM | –

— publication PMC7583942, “Profiling Anticancer and Antioxidant Activities of Phenolic Compounds Present in Black Walnuts (Juglans nigra) Using a High-Throughput Screening Approach” (Molecules, 2020)
